{"source": "ChEMBL document CHEMBL4823297", "about": "“Anticancer properties of bisaminoquinolines with modified linkers” (Bioorg Med Chem Lett, 2021)", "key": {"[1]": {"experiment": "Cytotoxicity against human A375P cells incubated for 72 hrs by MTT assay", "format": "functional, cell-based"}, "[2]": {"experiment": "Inhibition of autophagy in human A375P cells assessed as fold change in BNIP3 at 3 uM incubated for 24 hrs by immunoblot analysis relative to control", "format": "functional"}, "[3]": {"experiment": "Inhibition of autophagy in human A375P cells assessed as fold change in p62 at 3 uM incubated for 24 hrs by immunoblot analysis relative to control", "format": "functional"}, "[4]": {"experiment": "Inhibition of autophagy in human A375P cells assessed as fold change in LC3BII/ LC3BI ratio at 3 uM incubated for 24 hrs by immunoblot analysis relative to control", "format": "functional"}, "[5]": {"experiment": "Inhibition of autophagy in human A375P cells assessed as fold change in p-H2AX at 3 uM incubated for 24 hrs by immunoblot analysis relative to control", "format": "functional"}, "[6]": {"experiment": "Inhibition of autophagy in human A375P cells assessed as fold change in p62 at 10 uM incubated for 24 hrs by immunoblot analysis relative to control", "format": "functional"}, "[7]": {"experiment": "Inhibition of autophagy in human A375P cells assessed as fold change in H2AX at 10 uM incubated for 24 hrs by immunoblot analysis relative to control", "format": "functional"}, "[8]": {"experiment": "Inhibition of autophagy in human A375P cells assessed as fold change in BNIP3 at 10 uM incubated for 24 hrs by immunoblot analysis relative to control", "format": "functional"}, "[9]": {"experiment": "Inhibition of autophagy in human A375P cells assessed as fold change in LC3BII/ LC3BI ratio at 10 uM incubated for 24 hrs by immunoblot analysis relative to control", "format": "functional"}}, "note": "pIC50: −log10 of the molar value.", "data": [{"molecule": "CCCCCCCCN(CCNc1ccnc2cc(Cl)ccc12)CCNc1ccnc2cc(Cl)ccc12", "values": [{"measurement": "pIC50", "setting": "[1]", "value": 5.89}, {"measurement": "fold change (FC)", "setting": "[2]", "value": 5.9}, {"measurement": "fold change (FC)", "setting": "[3]", "value": 4}, {"measurement": "fold change (FC)", "setting": "[4]", "value": 26}]}, {"molecule": "CN(CCCCCCNc1ccnc2cc(Cl)ccc12)CCCCCCNc1ccnc2cc(Cl)ccc12", "values": [{"measurement": "fold change (FC)", "setting": "[5]", "value": 4.7}, {"measurement": "pIC50", "setting": "[1]", "value": 6.31}, {"measurement": "fold change (FC)", "setting": "[2]", "value": 3.2}, {"measurement": "fold change (FC)", "setting": "[3]", "value": 1.8}, {"measurement": "fold change (FC)", "setting": "[4]", "value": 24}]}, {"molecule": "CCOCCOCCN(CCNc1ccnc2cc(Cl)ccc12)CCNc1ccnc2cc(Cl)ccc12", "values": [{"measurement": "pIC50", "setting": "[1]", "value": 5.22}]}, {"molecule": "CNCCN(CCNc1ccnc2cc(Cl)ccc12)CCNc1ccnc2cc(Cl)ccc12", "values": [{"measurement": "fold change (FC)", "setting": "[6]", "value": 0.6}, {"measurement": "fold change (FC)", "setting": "[7]", "value": 1.4}, {"measurement": "fold change (FC)", "setting": "[8]", "value": 0.4}, {"measurement": "pIC50", "setting": "[1]", "value": 4.89}, {"measurement": "fold change (FC)", "setting": "[9]", "value": 0.8}]}, {"molecule": "Clc1ccc2c(NCCCCCCNCCCCCCNc3ccnc4cc(Cl)ccc34)ccnc2c1", "values": [{"measurement": "fold change (FC)", "setting": "[5]", "value": 20.8}, {"measurement": "fold change (FC)", "setting": "[2]", "value": 1.3}, {"measurement": "fold change (FC)", "setting": "[3]", "value": 1.1}, {"measurement": "fold change (FC)", "setting": "[4]", "value": 15.2}]}, {"molecule": "CN(C)CCN(CCNc1ccnc2cc(Cl)ccc12)CCNc1ccnc2cc(Cl)ccc12", "values": [{"measurement": "fold change (FC)", "setting": "[6]", "value": 0.8}, {"measurement": "fold change (FC)", "setting": "[7]", "value": 3}, {"measurement": "fold change (FC)", "setting": "[8]", "value": 1.7}, {"measurement": "pIC50", "setting": "[1]", "value": 5.34}, {"measurement": "fold change (FC)", "setting": "[9]", "value": 4.8}]}, {"molecule": "NCCN(CCNc1ccnc2cc(Cl)ccc12)CCNc1ccnc2cc(Cl)ccc12", "values": [{"measurement": "fold change (FC)", "setting": "[6]", "value": 0.5}, {"measurement": "fold change (FC)", "setting": "[7]", "value": 1.4}, {"measurement": "fold change (FC)", "setting": "[8]", "value": 0.7}, {"measurement": "pIC50", "setting": "[1]", "value": 4.91}, {"measurement": "fold change (FC)", "setting": "[9]", "value": 1}]}, {"molecule": "CCOCCOCCN(CCCCCCNc1ccnc2cc(Cl)ccc12)CCCCCCNc1ccnc2cc(Cl)ccc12", "values": [{"measurement": "pIC50", "setting": "[1]", "value": 6.19}, {"measurement": "fold change (FC)", "setting": "[2]", "value": 5.1}, {"measurement": "fold change (FC)", "setting": "[3]", "value": 2.7}, {"measurement": "fold change (FC)", "setting": "[4]", "value": 28}]}, {"molecule": "CCCCCCCCN(CCCCCCNc1ccnc2cc(Cl)ccc12)CCCCCCNc1ccnc2cc(Cl)ccc12", "values": [{"measurement": "pIC50", "setting": "[1]", "value": 6.38}, {"measurement": "fold change (FC)", "setting": "[2]", "value": 0.7}, {"measurement": "fold change (FC)", "setting": "[3]", "value": 1.6}, {"measurement": "fold change (FC)", "setting": "[4]", "value": 27}]}]}
